Results: US20240389589A1, “CORROSION INHIBITORS FOR NITROGEN INHIBITOR FORMULATION” (Verdesian Life Sciences U.S., LLC, priority 2021, published 2024)

Assays:
[1] = Nitrapyrin volatilization: weight loss on a heated balance at 100° C.; type: physicochemical; conditions: for weight as a percent of original weight: heated balance 100° C.; for nitrapyrin sulfolane volatility ratio: nitrapyrin without solvent vs. solvent alone
Protocol: Three materials were placed on a heated balance at […] and had their weights observed every minute for 10 minutes, as a percent of original weight. The materials were: • 1. pure nitrapyrin, • 2. 25% w/w solution of nitrapyrin in sulfolane, and • 3. solution of 25% nitrapyrin salt with equimolar (on acid basis) amount of maleic-itaconic copolymer, also in sulfolane (nitrapyrin/polyanionic polymer salt).
Therefore, the disclosed nitrapyrin-organic acid ionic mixtures substantially reduce the volatilization of nitrapyrin.
Tests were run to determine the relative volatility of the nitrapyrin solution without polyanionic polymer.

[2] = Formation of solutions of nitrapyrin salts at 20% w/w nitrapyrin and grading of solutions; type: physicochemical; parameters: key: 5: Fully dissolved; 4: Mostly dissolved; 3: Mostly not dissolved; 2: Not dissolved; 1: Additional precipitate
Source text: Example 2. Formation of Solutions of Nitrapyrin Salts and Grading of Solutions

[3] = solvent A dipropylene glycol, 20% w/w nitrapyrin
[4] = solvent B PT700, 20% w/w nitrapyrin
[5] = solvent C PT250, 20% w/w nitrapyrin
[6] = solvent D triethylene glycol, 20% w/w nitrapyrin
[7] = solvent E tripropylene glycol, 20% w/w nitrapyrin
[8] = solvent F propylene carbonate, 20% w/w nitrapyrin
[9] = solvent G triacetin, 20% w/w nitrapyrin
[10] = solvent H Agnique AMD810, 20% w/w nitrapyrin
[11] = solvent I Agnique AMD3L, 20% w/w nitrapyrin
[12] = solvent J Rhodiasolv ADMA10, 20% w/w nitrapyrin
[13] = solvent K Rhodiasolv ADMA810, 20% w/w nitrapyrin
[14] = solvent L Rhodiasolv PolarClean, 20% w/w nitrapyrin

Compound	grade of solution [2, 3]	grade of solution [2, 4]	grade of solution [2, 5]	grade of solution [2, 6]	grade of solution [2, 7]	grade of solution [2, 8]	grade of solution [2, 9]	grade of solution [2, 10]	grade of solution [2, 11]	grade of solution [2, 12]	grade of solution [2, 13]	grade of solution [2, 14]	also measured
Clc1cccc(C(Cl)(Cl)Cl)n1 [nitrapyrin without solvent, nitrapyrin]	–	–	–	–	–	–	–	–	–	–	–	–	weight as a percent of original weight ([1]; experiment time 0 min): 100.00%; weight as a percent of original weight ([1]; experiment time 1 min): 99.20%; weight as a percent of original weight ([1]; experiment time 2 min): 98.56%; weight as a percent of original weight ([1]; experiment time 3 min): 97.92%; weight as a percent of original weight ([1]; experiment time 4 min): 96.00%; weight as a percent of original weight ([1]; experiment time 5 min): 94.87%; weight as a percent of original weight ([1]; experiment time 6 min): 93.75%; weight as a percent of original weight ([1]; experiment time 7 min): 92.63%; weight as a percent of original weight ([1]; experiment time 8 min): 90.87%; weight as a percent of original weight ([1]; experiment time 9 min): 89.90%; weight as a percent of original weight ([1]; experiment time 10 min): 89.10%; nitrapyrin sulfolane volatility ratio ([1]; Delta 3-10): 401%; nitrapyrin sulfolane volatility ratio ([1]; Delta 4-10): 392%; nitrapyrin sulfolane volatility ratio ([1]; Delta 5-10): 393%
O=C(O)CCC(=O)O [succinic]	3	4	1	2	3	3	2	5	5	5	5	5	–
O=C(O)C(O)C(O)C(=O)O (centres unmarked) [tartaric]	2	2	1	1	2	2	2	5	5	5	5	5	–
adipic	2	3	1	3	4	3	3	5	5	5	5	5	–
malic	2	4	1	2	2	3	3	5	5	5	5	5	–
